US7371748B2, “Benzothiazole derivatives” (Hoffman-La Roche Inc., priority 2003, dated 2008)

Tests used:
[1] = target: T1, human adenosine A2A receptor (Homo sapiens, UniProt P29274); assay: [3H]-SCH-58261 binding assay, human adenosine A2A receptor; settings: human A2A receptor recombinantly expressed in CHO cell membranes; [3H]-SCH-58261 1 nM; Ki from IC50 by Cheng-Prussoff equation; read-out: Ha2 (pKi) (converted)
T1 construct: expressed in transfected cells; host or cells: CHO cells, Semliki Forest virus expression system; membrane preparation
T1 sequence (P29274 whole entry): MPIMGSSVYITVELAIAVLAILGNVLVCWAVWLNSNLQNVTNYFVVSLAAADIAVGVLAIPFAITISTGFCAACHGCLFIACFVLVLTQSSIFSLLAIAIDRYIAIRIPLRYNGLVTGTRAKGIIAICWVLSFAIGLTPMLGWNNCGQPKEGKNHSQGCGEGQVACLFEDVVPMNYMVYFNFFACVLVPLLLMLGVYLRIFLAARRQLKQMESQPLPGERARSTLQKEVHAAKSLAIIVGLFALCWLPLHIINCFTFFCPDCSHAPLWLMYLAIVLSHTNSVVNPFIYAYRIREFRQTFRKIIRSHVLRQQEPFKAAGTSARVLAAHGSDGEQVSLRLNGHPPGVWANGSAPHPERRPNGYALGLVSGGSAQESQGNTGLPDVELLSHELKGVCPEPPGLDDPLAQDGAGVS
Description: Human Adenosine A2A Receptor
The human adenosine A2A receptor was recombinantly expressed in chinese hamster ovary (CHO) cells using the semliki forest virus expression system. Cells were harvested, washed twice by centrifugation, homogenized and again washed by centrifugation. The final washed membrane pellet was suspended in a Tris (50 mM) buffer containing 120 mM NaCl, 5 mM KCl, 2 mM CaCl2 and 10 mM MgCl2 (pH 7.4) (buffer A). The [^3H]-SCH-58261 (Dionisotti et al., […], Br J Pharmacol 121, 353; 1 nM) binding assay was carried out in 96-well plates in the presence of 2.5 μg of membrane protein, 0.5 mg of Ysi-poly-1-lysine SPA beads and 0.1 U adenosine deaminase in a final volume of 200 μl of buffer A. Non-specific binding was defined using xanthine amine congener (XAC; 2 μM). Compounds were tested at 10 concentrations from 10 μM-0.3 nM. All assays were conducted in duplicate and repeated at least two times. Assay plates were incubated for 1 hour at room temperature before centrifugation and then bound ligand determined using a Packard Topcount scintillation counter. IC50 values were calculated using a non-linear curve fitting program and Ki values calculated using the Cheng-Prussoff equation.

With COc1ccc(C2CCOCC2)c2sc(NC(=O)C[C@H]3CC[C@H](O)CC3)nc12 [Example 50, (trans)-2-(4-Hydroxy-cyclohexyl)-N-[4-methoxy-7-(tetrahydro-pyran-4-yl)-benzothiazol-2-yl]-acetamide] the Ki [1] was 2.51 nM and the melting point was 120 to 145 °C.
COc1ccc(C2CCOCC2)c2sc(NC(=O)N3CCC(CO)CC3)nc12 [Example 52, 4-Hydroxymethyl-piperidine-1-carboxylic acid [4-methoxy-7-(tetrahydro-pyran-4-yl)-benzothiazol-2-yl]-amide] showed a Ki [1] of 1 nM and a melting point of 202 to 203.5 °C.
